Experimental data from patent US20250002486A1, “CYCLIC SULFONAMIDE RIBONUCLEOTIDE REDUCTASE (RNR) INHIBITORS AND USES THEREOF” (Boundless Bio, Inc., priority 2021, published 2025).

How the values were obtained:
RNR (RNR1:RNR2 1:1) = RNR (RNR1:RNR2 1:1) (Homo sapiens (Human), UniProt P23921); assay: RNR enzyme activity, rapid-fire mass spectrometry (RF/MS) assay; format: biochemical; settings: RNR 50 nM, 1:1 RNR1:RNR2; CDP 5 μM, ATP 1 mM; 37° C., 45 min; compounds screened up to 50 μM
Description: A rapid-fire mass spectrometry (RF/MS) assay was used to assess RNR enzyme activity using a 384 well plate and a robotic platform.
The plate layout included two validated reference compounds (Triapine (3-AP) and Hydroxyurea (HU)): • A dose response in duplicate; top concentration: 5 μM (3-AP) and 250 μM (HU), semi-log • dilutions. • Spike wells in triplicate randomly spotted at four concentrations: • 250 μM, 100 μM, 30 μM and 2 μM for HU • 5 μM, 2 μM, 0.6 μM and 0.04 μM for 3-AP
First, the multidrop pipes were saturated for 30 minutes with enzymatic solution. Then 30 μL of Stop solution was distributed in column 24. Next, 15 μL of enzyme was distributed in column 1 to 24. Next, a pre-incubation step of 15 minutes at room temperature occurred, followed by distribution of 15 μL of substrate solution (column 1 to 24). Next, the plate was incubated for 45 minutes at 37° C. 30 μL of Stop solution was distributed to columns 1 to 23.
The final parameters for the enzyme reactions were: • Incubation: 37° C., 45 min • [CDP]: 5 μM; [ATP]: 1 mM; [NADPH]: No • [RNR]final: 50 nM with 1:1 (RNR1:RNR2) ratio • Final volume: 30 μL • Stop solution: 6% HCOOH containing 2 μM of 15

[1] = test system: pCHK1 (S345) in Colo320 DM cells; assay: Alphalisa assay: pCHK1 (S345) detection in Colo320 DM cells; format: cell-based, human; settings: compound incubation overnight (approximately 16 hours), pCHK1 (S345) AlphaLisa Sure Fire kit
Description: Colo320 DM cells (ATCC #CCL-220, derived from human colorectal adenocarcinoma, Dukes' type C) were seeded on a 96-well, cell culture treated assay plate at a density of 50,000 cells/well in 200 μL of RPMI-1640 media supplemented with 10% Fetal Bovine Serum and incubated at 37 degrees Celsius overnight. The following day, test compound dilutions were added directly to the plated cells by a Tecan digital dispenser to a final DMSO concentration of <0.5%. and incubated at 37 degrees Celsius overnight (approximately 16 hours). The following day all cull culture media was removed from the cells. 75 μL of 1× AlphaLisa lysis buffer was added to each well and plates were agitated on a shaker for 30 minutes at room temperature. The lysis of cells and detection of pCHK1 (S345) were performed with regents contained within the AlphaLisa Sure Fire assay kit (Perkin Elmer #ALSU-PCHK1-A) according to the manufacturer's instructions. 10 μL of each lysate was then transferred to a white, 384-well assay plate (Perkin Elmer #6008280). 5 μL of Acceptor mix was then added to each well of lysate in the white, 384-well assay plate and incubated in the dark at room temperature for 60 minutes. 5 μL of Donor mix was then added to each well of the white, 384-well assay plate in subdued light and incubated at room temperature for 60 minutes. Plates were read on an Alpha Technology-compatible plate reader using standard AlphaLisa settings.

Sequence of RNR (RNR1:RNR2 1:1) (P23921 whole entry): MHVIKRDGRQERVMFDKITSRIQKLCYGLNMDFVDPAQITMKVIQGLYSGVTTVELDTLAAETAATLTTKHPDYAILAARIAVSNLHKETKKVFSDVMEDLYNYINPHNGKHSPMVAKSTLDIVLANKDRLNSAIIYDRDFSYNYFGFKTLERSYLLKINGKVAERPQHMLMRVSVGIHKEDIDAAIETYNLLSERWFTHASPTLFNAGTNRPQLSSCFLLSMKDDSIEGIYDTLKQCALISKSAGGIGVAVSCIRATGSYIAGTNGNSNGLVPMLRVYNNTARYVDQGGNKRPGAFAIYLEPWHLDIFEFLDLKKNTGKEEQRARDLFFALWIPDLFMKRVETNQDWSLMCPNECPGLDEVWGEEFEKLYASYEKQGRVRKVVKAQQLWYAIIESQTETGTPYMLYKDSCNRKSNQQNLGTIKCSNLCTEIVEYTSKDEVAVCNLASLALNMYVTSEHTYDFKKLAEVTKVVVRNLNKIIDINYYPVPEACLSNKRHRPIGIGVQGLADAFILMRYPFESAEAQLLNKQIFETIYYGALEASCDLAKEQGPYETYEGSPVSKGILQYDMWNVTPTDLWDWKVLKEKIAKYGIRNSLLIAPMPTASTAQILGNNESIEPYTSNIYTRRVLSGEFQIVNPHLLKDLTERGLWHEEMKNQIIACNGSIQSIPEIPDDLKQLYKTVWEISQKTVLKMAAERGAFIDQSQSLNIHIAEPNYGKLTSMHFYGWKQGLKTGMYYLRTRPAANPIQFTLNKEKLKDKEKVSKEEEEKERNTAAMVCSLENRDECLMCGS

| SMILES | IC50 (RNR (RNR1:RNR2 1:1)) [µM] | IC50 [1] [µM] | IC50 ([1]; Homo sapiens, COLO 320DM) [µM] |
| --- | --- | --- | --- |
| COc1cc(Cl)cc2c1S(=O)(=O)N([C@@H](c1n[nH]c(=O)o1)[C@@H](C)c1c(F)ccc(C)c1C)C2=O (stereo in doubt) [Example 3, 5-((1R,2S)-1-(5-chloro-7-methoxy-1,1-dioxido-3-oxobenzo[d]isothiazol-2(3H)-yl)-2-(6-fluoro-2,3-dimethylphenyl)propyl)-1,3,4-oxadiazol-2(3H)-one] | 10 to 100 | > 50 |  |
| COc1cc(Cl)cc2c1S(=O)(=O)N([C@@H](c1n[nH]c(=O)o1)[C@H](C)c1c(F)ccc(C)c1C)C2=O (stereo in doubt) [Example 4, 5-((1R,2R)-1-(5-chloro-7-methoxy-1,1-dioxido-3-oxobenzo[d]isothiazol-2(3H)-yl)-2-(6-fluoro-2,3-dimethylphenyl)propyl)-1,3,4-oxadiazol-2(3H)-one] | 10 to 100 |  | > 50 |
| COc1cc(Cl)cc2c1S(=O)(=O)N([C@@H](c1n[nH]c(=O)o1)[C@@H](C)c1c(F)ccc(C)c1C)C2=O (stereo in doubt) [Example 15, 5-((1R,2S)-1-(5-chloro-7-methoxy-1,1-dioxido-3-oxobenzo[d]isothiazol-2(3H)-yl)-2-(6-fluoro-2,3-dimethylphenyl)propyl)-1,3,4-oxadiazol-2(3H)-one] | 10 to 100 |  | > 50 |
| Cc1ccc(F)c([C@@H](C)[C@@H](c2n[nH]c(=O)o2)N2C(=O)c3cc(Cl)ccc3S2(=O)=O)c1C [Example 1, 5-((1S,2R)-1-(5-chloro-1,1-dioxido-3-oxobenzo[d]isothiazol-2(3H)-yl)-2-(6-fluoro-2,3-dimethylphenyl)propyl)-1,3,4-oxadiazol-2(3H)-one] | 10 to 100 |  | > 50 |
| Cc1ccc(F)c([C@H](C)[C@@H](c2n[nH]c(=O)o2)N2C(=O)c3cc(Cl)ccc3S2(=O)=O)c1C [Example 2, 5-((1S,2S)-1-(5-chloro-1,1-dioxido-3-oxobenzo[d]isothiazol-2(3H)-yl)-2-(6-fluoro-2,3-dimethylphenyl)propyl)-1,3,4-oxadiazol-2(3H)-one] | 1 to 10 |  | > 50 |
| COc1cc(Cl)cc2c1S(=O)(=O)N([C@H](c1n[nH]c(=O)o1)[C@@H](C)c1c(F)ccc(C)c1C)C2 [Example 5, 5-((1S,2S)-1-(5-chloro-7-methoxy-1,1-dioxidobenzo [d]isothiazol-2(3H)-yl)-2-(6-fluoro-2,3-dimethylphenyl)propyl)-1,3,4-oxadiazol-2(3H)-one] | 10 to 100 |  | > 50 |
| COc1cc(Cl)cc2c1S(=O)(=O)N([C@H](c1n[nH]c(=O)o1)[C@H](C)c1c(F)ccc(C)c1C)C2 [Example 6, 5-((1S,2R)-1-(5-chloro-7-methoxy-1,1-dioxidobenzo [d]isothiazol-2(3H)-yl)-2-(6-fluoro-2,3-dimethylphenyl)propyl)-1,3,4-oxadiazol-2(3H)-one] | 1 to 10 |  | > 50 |
| Cc1ccc(F)c([C@@H](C)[C@@H](c2n[nH]c(=O)o2)N2CCc3cc(Cl)ccc3S2(=O)=O)c1C [Example 7, 5-((1S,2R)-1-(6-chloro-1,1-dioxido-3,4-dihydro-2H-benzo[e][1,2]thiazin-2-yl)-2-(6-fluoro-2,3-dimethylphenyl)propyl)-1,3,4-oxadiazol-2(3H)-one] | ≤ 0.1 |  | ≤ 5 |
| Cc1ccc(F)c([C@H](C)[C@H](c2n[nH]c(=O)o2)N2CCc3cc(Cl)ccc3S2(=O)=O)c1C [Example 8, 5-((1R,2S)-1-(6-chloro-1,1-dioxido-3,4-dihydro-2H-benzo[e][1,2]thiazin-2-yl)-2-(6-fluoro-2,3-dimethylphenyl)propyl)-1,3,4-oxadiazol-2(3H)-one] | 10 to 100 |  | > 50 |
| Cc1ccc(F)c([C@@H](C)[C@@H](c2n[nH]c(=O)o2)N2CCCc3cc(Cl)ccc3S2(=O)=O)c1C [Example 9, 5-((1S,2R)-1-(7-chloro-1,1-dioxido-4,5-dihydrobenzo [f][1,2]thiazepin-2(3H)-yl)-2-(6-fluoro-2,3-dimethylphenyl)propyl)-1,3,4-oxadiazol-2(3H)-one] | ≤ 0.1 |  | ≤ 5 |
| Cc1ccc(F)c([C@H](C)[C@@H](c2n[nH]c(=O)o2)N2CCCc3cc(Cl)ccc3S2(=O)=O)c1C [Example 10, 5-((1S,2S)-1-(7-chloro-1,1-dioxido-4,5-dihydrobenzo [f][1,2]thiazepin-2(3H)-yl)-2-(6-fluoro-2,3-dimethylphenyl)propyl)-1,3,4-oxadiazol-2(3H)-one] | 10 to 100 |  | > 50 |
| Cc1ccc(F)c([C@@H](C)[C@@H](c2n[nH]c(=O)o2)N2CCc3ccc(Cl)cc3S2(=O)=O)c1C [Example 11, 5-((1S,2R)-1-(7-chloro-1,1-dioxido-3,4-dihydro-2H-benzo[e][1,2]thiazin-2-yl)-2-(6-fluoro-2,3-dimethylphenyl)propyl)-1,3,4-oxadiazol-2(3H)-one] | 0.1 to 1 |  | > 50 |
| Cc1ccc(F)c([C@H](C)[C@@H](c2n[nH]c(=O)o2)N2CCc3ccc(Cl)cc3S2(=O)=O)c1C [Example 12, 5-((1S,2s)-1-(7-chloro-1,1-dioxido-3,4-dihydro-2H-benzo[e][1,2]thiazin-2-yl)-2-(6-fluoro-2,3-dimethylphenyl)propyl)-1,3,4-oxadiazol-2(3H)-one] | 10 to 100 |  | > 50 |
| Cc1ccc(F)c([C@@H](C)[C@@H](c2nn[nH]n2)N2CCc3cc(Cl)ccc3S2(=O)=O)c1C [Example 13, 6-chloro-2-((1S,2R)-2-(6-fluoro-2,3-dimethylphenyl)-1-(2H-tetrazol-5-yl)propyl)-3,4-dihydro-2H-benzo[e][1,2] thiazine 1,1-dioxide] | ≤ 0.1 |  | 5 to 10 |
| Cc1ccc(F)c([C@@H](C)[C@@H](c2n[nH]c(=O)o2)N2Cc3cc(Cl)ccc3S2(=O)=O)c1C [Example 14, 5-((1S,2R)-1-(5-chloro-1,1-dioxidobenzo [d]isothiazol-2(3H)-yl)-2-(6-fluoro-2,3-dimethylphenyl)propyl)-1,3,4-oxadiazol-2(3H)-one] | 1 to 10 |  | > 50 |
| Cc1ccc(F)c(C(C)[C@@H](c2n[nH]c(=O)o2)N2CC(=O)c3cc(Cl)ccc3S2(=O)=O)c1C (stereo partly drawn) [Example 16, 5-((1S)-1-(6-chloro-1,1-dioxido-4-oxo-3,4-dihydro-2H-benzo[e] [1,2]thiazin-2-yl)-2-(6-fluoro-2,3-dimethylphenyl)propyl)-1,3,4-oxadiazol-2(3H)-one] | 0.1 to 1 |  | 5 to 10 |
| Cc1ccc(F)c(C(C)[C@@H](c2n[nH]c(=O)o2)N2C(=O)Cc3cc(Cl)ccc3S2(=O)=O)c1C (stereo partly drawn) [Example 17, 5-((1S)-1-(6-chloro-1,1-dioxido-3-oxo-3,4-dihydro-2H-benzo[e] [1,2]thiazin-2-yl)-2-(6-fluoro-2,3-dimethylphenyl)propyl)-1,3,4-oxadiazol-2(3H)-one] | 10 to 100 |  | > 50 |
| Cc1ccc(F)c([C@@H](C)[C@@H](c2n[nH]c(=O)o2)N2CCc3ccccc3S2(=O)=O)c1C [Example 18, 5-((1S,2R)-1-(1,1-dioxido-3,4-dihydro-2H-benzo[e] [1,2]thiazin-2-yl)-2-(6-fluoro-2,3-dimethylphenyl)propyl)-1,3,4-oxadiazol-2(3H)-one] | 0.1 to 1 |  | 10 to 50 |
